Experimental data from patent US12077503B2, “Substituted cyclic amides and their use as herbicides” (FMC CORPORATION, priority 2015, dated 2024).

Key:
Format in all cases: in vivo
[1] = tested on: pigweed (Amaranthus retroflexus); experiment: Test A postemergence; settings: Amaranthus retroflexus, post-emergence, 240 h, Postemergence; for pest or weed control at 125 g/ha: 125 g ai/ha, visual rating about 10 d after treatment, read-out: Pigweed plant response rating (0 to 100 scale); for pest or weed control at 500 g/ha: 500 g ai/ha, visual injury, 0 to 100 scale (0 no effect, 100 complete control), approx. 10 d, read-out: Plant response rating, Pigweed
How it was run: (§1)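 Compounds were formulated in a non-phytotoxic solvent mixture with surfactant and applied as a preemergence directed soil spray after seeding, or sprayed postemergence over plants 2 to 10 cm tall at the one- to two-leaf stage. Evaluation after about 10 d compared treated with untreated controls, using a scale from 0 (no effect) to 100 (complete control).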

[2] = tested on: wheat (Triticum aestivum); experiment: Test A postemergence; settings: Triticum aestivum, post-emergence, 240 h, Postemergence; for plant injury at 125 g/ha: 125 g ai/ha, visual rating about 10 d after treatment, read-out: Wheat plant response rating (0 to 100 scale); for plant injury at 500 g/ha: 500 g ai/ha, visual injury, 0 to 100 scale (0 no effect, 100 complete control), approx. 10 d, read-out: Plant response rating, Wheat
How it was run: as §1

[3] = tested on: giant foxtail (Setaria faberii); experiment: Test A postemergence; settings: Setaria faberi, post-emergence, 240 h, Postemergence; for pest or weed control at 125 g/ha: 125 g ai/ha, visual rating about 10 d after treatment, read-out: Foxtail, Giant plant response rating (0 to 100 scale); for pest or weed control at 500 g/ha: 500 g ai/ha, visual injury, 0 to 100 scale (0 no effect, 100 complete control), approx. 10 d, read-out: Plant response rating, Foxtail, Giant
How it was run: as §1

corn (Zea mays) = experiment: Test A postemergence; settings: Zea mays, post-emergence, 240 h, Postemergence; for plant injury at 125 g/ha: 125 g ai/ha, visual rating about 10 d after treatment, read-out: Corn plant response rating (0 to 100 scale); for Corn plant response rating (crop injury, 0 = no effect, 100 = complete kill) at 500 g/ha: 500 g ai/ha, visual injury, 0 to 100 scale (0 no effect, 100 complete control), approx. 10 d
How it was run: as §1

[4] = tested on: barnyardgrass (Echinochloa crus-galli); experiment: Test A postemergence; settings: Echinochloa crus-galli, post-emergence, 240 h, Postemergence; for pest or weed control at 125 g/ha: 125 g ai/ha, visual rating about 10 d after treatment, read-out: Barnyardgrass plant response rating (0 to 100 scale, 0 no effect, 100 complete control); for pest or weed control at 500 g/ha: 500 g ai/ha, visual injury, 0 to 100 scale (0 no effect, 100 complete control), approx. 10 d, read-out: Plant response rating, Barnyardgrass
How it was run: as §1

rice (Oryra sativa) = experiment: Test B flooded paddy test; settings: Oryza sativa, 360 h, Flood, 250 g ai/ha; visually evaluated after 13 to 15 d; read-out: Plant response rating, Rice (0 to 100 scale where 0 is no effect and 100 is complete control)
How it was run: (§2)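 Flooding to 3 cm over soil accompanied treatment, which consisted of adding compound to the standing water around 2-leaf plants; depth was then maintained. Visual assessment versus controls followed at 13 to 15 d (scale 0–100, 0 meaning no effect).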

[5] = tested on: sedge, umbrella (small-flower umbrella sedge, Cyperus difformis); experiment: Test B flooded paddy test; settings: Cyperus difformis, 360 h, Flood, 250 g ai/ha; visually evaluated after 13 to 15 d; read-out: Plant response rating, Sedge, Umbrella (0 to 100 scale where 0 is no effect and 100 is complete control)
How it was run: as §2

[6] = tested on: ducksalad (Heteranthera limosa); experiment: Test B flooded paddy test; settings: Heteranthera limosa, 360 h, Flood, 250 g ai/ha; visually evaluated after 13 to 15 d; read-out: Plant response rating, Ducksalad (0 to 100 scale where 0 is no effect and 100 is complete control)
How it was run: as §2

[7] = tested on: barnyardgrass (Echinochloa crus-galli); experiment: Test B flooded paddy test; settings: Echinochloa crus-galli, 360 h, Flood, 250 g ai/ha; visually evaluated after 13 to 15 d; read-out: Plant response rating, Barnyardgrass (0 to 100 scale where 0 is no effect and 100 is complete control)
How it was run: as §2

N#Cc1ccc(NC(=O)C2C(=O)NCC2c2ccccc2)cc1 (centres unmarked) [Compound 1355]
0%: pest or weed control at 125 g/ha [1] | pest or weed control at 500 g/ha [1] | plant injury at 125 g/ha [2] | plant injury at 500 g/ha [2] | pest or weed control at 125 g/ha [3] | pest or weed control at 500 g/ha [3] | plant injury at 125 g/ha (corn (Zea mays)) | Corn plant response rating (crop injury, 0 = no effect, 100 = complete kill) at 500 g/ha (corn (Zea mays)) | pest or weed control at 125 g/ha [4] | pest or weed control at 500 g/ha [4]

O=C1NCC(c2ccccc2)C1C(=O)Nc1cccnc1 (centres unmarked) [Compound 1356]
0%: pest or weed control at 125 g/ha [1] | pest or weed control at 500 g/ha [1] | plant injury at 125 g/ha [2] | plant injury at 500 g/ha [2] | pest or weed control at 125 g/ha [3] | pest or weed control at 500 g/ha [3] | plant injury at 125 g/ha (corn (Zea mays)) | Corn plant response rating (crop injury, 0 = no effect, 100 = complete kill) at 500 g/ha (corn (Zea mays)) | pest or weed control at 125 g/ha [4] | pest or weed control at 500 g/ha [4]

O=C1NCC(c2ccccc2)C1C(=O)Nc1ccccc1Oc1ccccc1 (centres unmarked) [Compound 1357]
0%: pest or weed control at 125 g/ha [1] | pest or weed control at 500 g/ha [1] | plant injury at 125 g/ha [2] | plant injury at 500 g/ha [2] | pest or weed control at 125 g/ha [3] | pest or weed control at 500 g/ha [3] | plant injury at 125 g/ha (corn (Zea mays)) | Corn plant response rating (crop injury, 0 = no effect, 100 = complete kill) at 500 g/ha (corn (Zea mays)) | pest or weed control at 125 g/ha [4] | pest or weed control at 500 g/ha [4]

O=C1NCC(c2ccccc2)C1C(=O)Nc1ccccc1 (centres unmarked) [Compound 1358]
0%: pest or weed control at 125 g/ha [1] | pest or weed control at 500 g/ha [1] | plant injury at 125 g/ha [2] | plant injury at 500 g/ha [2] | pest or weed control at 125 g/ha [3] | pest or weed control at 500 g/ha [3] | plant injury at 125 g/ha (corn (Zea mays)) | Corn plant response rating (crop injury, 0 = no effect, 100 = complete kill) at 500 g/ha (corn (Zea mays)) | pest or weed control at 125 g/ha [4] | pest or weed control at 500 g/ha [4] | pest or weed control at 250 g/ha (rice (Oryra sativa)) | pest or weed control at 250 g/ha [5] | pest or weed control at 250 g/ha [6] | pest or weed control at 250 g/ha [7]
